Measurements from paper PMC12140300, “Development of Carbon‐11 Labeled Pyrimidine Derivatives as Novel Positron Emission Tomography (PET) Agents Enabling Brain Sigma‐1 Receptor Imaging” (Advanced Science, 2025).

Key:
σ1R = biological target: T1, σ1R (Cavia porcellus, UniProt Q60492); assay: Ex vivo competitive radioligand binding assay for σ1R, [3H](+)-pentazocine; parameters: species or system Dunkin Hartley guinea pig; details: guinea pig brain membranes
T1 construct: guinea pig brain membranes protein; from tissue; host or cells: guinea pig brain membranes
T1 sequence (Q60492 whole entry): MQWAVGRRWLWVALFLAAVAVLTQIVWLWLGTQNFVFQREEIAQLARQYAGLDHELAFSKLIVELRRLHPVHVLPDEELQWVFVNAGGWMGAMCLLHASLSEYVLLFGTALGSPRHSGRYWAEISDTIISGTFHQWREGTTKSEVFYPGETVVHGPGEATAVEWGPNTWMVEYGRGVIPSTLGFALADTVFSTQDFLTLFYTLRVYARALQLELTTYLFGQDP
Experimental: (§1) The ex vivo binding affinities of σRs of CNY‐01 and CNY‐02 were measured using a competitive radioligand binding assay.^[ [35] ^]
The following specific radioligands and tissue sources were used: (a) σ 1R, [^3H] (+)‐pentazocine, Dunkin Hartley guinea pig brain membranes; (b) σ 2R, [^3H]‐DTG, Dunkin Hartley guinea pig brain membranes. Membrane preparation of brain tissue was performed following the previously reported method.4 Generally, for σ 1R binding test, guinea pig brain membranes protein (5‐10 mg), [^3H]‐(+)‐pentazocine (4 nM), test compounds solution in various concentrations (10^−5 to 10^−10 M) were incubated at 25 °C for 180 min in Tris‐HCl buffer (pH 8.0). For σ 2R binding study, the membrane suspension was incubated with [^3H]‐DTG (3 nM), different concentration test compounds, within 400 nM (+)‐SKF10047 to block σ 1R. Nonspecific binding was conducted in both binding assays under similar conditions, adding […] haloperidol. After incubation, the mixture was rapidly filtrated through Whatman GF/B glass filters, washed twice and transferred to scintillation vials, and the radioactivity bound was measured by a Beckman LS 6500 liquid scintillation counter. Inhibition constants (Ki) were calculated based on the Cheng and Prusoff equation after the IC50 values were obtained.

MOR = biological target: T2, MOR (Homo sapiens, UniProt P35372); assay: PDSP radioligand assay; format: binding
T2 construct: purchased NIMH Psychoactive Drug Screening Program (PDSP)
T2 sequence (P35372 whole entry): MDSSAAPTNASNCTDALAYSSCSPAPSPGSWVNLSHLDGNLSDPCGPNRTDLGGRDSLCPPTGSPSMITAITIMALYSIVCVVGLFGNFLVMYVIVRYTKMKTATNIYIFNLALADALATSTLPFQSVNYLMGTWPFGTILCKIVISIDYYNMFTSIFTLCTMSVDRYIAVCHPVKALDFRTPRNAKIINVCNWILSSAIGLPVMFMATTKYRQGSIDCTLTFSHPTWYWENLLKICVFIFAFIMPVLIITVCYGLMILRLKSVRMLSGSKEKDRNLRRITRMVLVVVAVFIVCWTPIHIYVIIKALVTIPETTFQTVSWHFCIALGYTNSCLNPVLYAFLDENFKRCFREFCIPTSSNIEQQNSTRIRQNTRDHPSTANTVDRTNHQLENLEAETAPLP

M4 = biological target: T3, M4 (Homo sapiens, UniProt P08173); assay: PDSP radioligand assay; format: binding
T3 construct: purchased NIMH Psychoactive Drug Screening Program (PDSP)
T3 sequence (P08173 whole entry): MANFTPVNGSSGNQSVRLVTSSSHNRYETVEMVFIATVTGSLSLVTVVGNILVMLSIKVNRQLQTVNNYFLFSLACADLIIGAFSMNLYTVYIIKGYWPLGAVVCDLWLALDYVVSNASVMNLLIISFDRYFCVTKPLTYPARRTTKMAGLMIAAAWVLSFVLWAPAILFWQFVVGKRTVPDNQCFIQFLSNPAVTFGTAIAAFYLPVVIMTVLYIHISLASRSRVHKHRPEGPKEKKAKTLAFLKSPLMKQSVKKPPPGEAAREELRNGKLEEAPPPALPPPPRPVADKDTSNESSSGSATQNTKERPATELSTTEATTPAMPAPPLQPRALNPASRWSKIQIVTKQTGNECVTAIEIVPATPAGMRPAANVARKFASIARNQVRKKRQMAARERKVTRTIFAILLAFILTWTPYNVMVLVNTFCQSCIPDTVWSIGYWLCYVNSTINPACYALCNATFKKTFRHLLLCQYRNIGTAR

SERT = biological target: T4, SERT (Homo sapiens, UniProt P31645); assay: PDSP radioligand assay; format: binding
T4 construct: purchased NIMH Psychoactive Drug Screening Program (PDSP)
T4 sequence (P31645 whole entry): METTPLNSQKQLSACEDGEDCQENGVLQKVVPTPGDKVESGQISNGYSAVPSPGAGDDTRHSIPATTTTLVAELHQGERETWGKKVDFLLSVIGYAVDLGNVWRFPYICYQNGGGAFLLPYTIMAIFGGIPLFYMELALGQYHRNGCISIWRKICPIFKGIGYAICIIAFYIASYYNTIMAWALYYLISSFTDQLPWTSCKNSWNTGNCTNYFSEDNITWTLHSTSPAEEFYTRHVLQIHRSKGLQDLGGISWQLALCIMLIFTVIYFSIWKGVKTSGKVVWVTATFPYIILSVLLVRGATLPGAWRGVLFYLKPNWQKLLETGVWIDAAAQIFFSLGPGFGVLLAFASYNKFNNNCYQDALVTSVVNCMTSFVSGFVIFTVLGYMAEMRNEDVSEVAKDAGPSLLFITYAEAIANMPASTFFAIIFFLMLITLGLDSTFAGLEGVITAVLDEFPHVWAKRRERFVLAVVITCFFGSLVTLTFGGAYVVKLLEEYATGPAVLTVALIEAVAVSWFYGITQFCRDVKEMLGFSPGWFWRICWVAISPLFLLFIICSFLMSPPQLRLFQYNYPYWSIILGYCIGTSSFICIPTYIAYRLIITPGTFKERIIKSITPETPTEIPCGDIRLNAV

BZP Rat Brain Site = assay: PDSP radioligand assay; format: binding; details: 10 µM
Experimental: as §1
(§2) Details of individual binding assay conditions and protocols are available at the NIMH PDSP website: https://pdsp.unc.edu/pdspweb/.

Alpha2C = biological target: T5, Alpha2C (Homo sapiens, UniProt P18825); assay: PDSP radioligand assay; format: binding
T5 sequence (P18825 1-462): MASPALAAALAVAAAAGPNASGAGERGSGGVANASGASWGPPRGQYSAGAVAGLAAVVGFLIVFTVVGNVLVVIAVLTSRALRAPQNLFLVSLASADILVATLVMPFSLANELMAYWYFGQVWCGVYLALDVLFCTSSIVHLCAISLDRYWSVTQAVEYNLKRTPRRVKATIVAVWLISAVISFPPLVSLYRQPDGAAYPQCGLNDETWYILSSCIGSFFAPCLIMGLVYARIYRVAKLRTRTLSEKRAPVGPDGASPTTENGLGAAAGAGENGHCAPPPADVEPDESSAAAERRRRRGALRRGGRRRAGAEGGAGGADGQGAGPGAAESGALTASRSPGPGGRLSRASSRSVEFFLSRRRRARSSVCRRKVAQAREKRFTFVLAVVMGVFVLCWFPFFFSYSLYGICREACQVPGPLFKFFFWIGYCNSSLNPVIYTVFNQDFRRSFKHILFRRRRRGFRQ
Experimental: as §1, §2

Alpha2B = biological target: T6, Alpha2B (Homo sapiens, UniProt P18089); assay: PDSP radioligand assay; format: binding
T6 sequence (P18089 1-450): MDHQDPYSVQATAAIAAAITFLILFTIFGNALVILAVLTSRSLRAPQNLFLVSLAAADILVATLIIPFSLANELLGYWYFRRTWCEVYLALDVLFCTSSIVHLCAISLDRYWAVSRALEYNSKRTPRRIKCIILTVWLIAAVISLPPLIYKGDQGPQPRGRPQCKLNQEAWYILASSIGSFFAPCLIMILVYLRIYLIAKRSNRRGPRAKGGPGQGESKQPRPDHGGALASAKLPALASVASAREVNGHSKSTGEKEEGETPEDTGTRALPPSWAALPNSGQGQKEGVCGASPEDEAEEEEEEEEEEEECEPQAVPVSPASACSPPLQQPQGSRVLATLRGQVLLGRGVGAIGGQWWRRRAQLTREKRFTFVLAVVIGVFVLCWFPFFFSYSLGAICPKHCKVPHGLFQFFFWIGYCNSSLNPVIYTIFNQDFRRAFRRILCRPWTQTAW
Experimental: as §1, §2

5-HT6 = biological target: T7, 5-HT6 (Homo sapiens, UniProt P50406); assay: PDSP radioligand assay; format: binding
T7 construct: purchased NIMH Psychoactive Drug Screening Program (PDSP)
Experimental: as §1, §2

D5 = D5 (Homo sapiens, UniProt P21918); assay: PDSP radioligand assay; format: binding
Sequence of D5 (P21918 whole entry): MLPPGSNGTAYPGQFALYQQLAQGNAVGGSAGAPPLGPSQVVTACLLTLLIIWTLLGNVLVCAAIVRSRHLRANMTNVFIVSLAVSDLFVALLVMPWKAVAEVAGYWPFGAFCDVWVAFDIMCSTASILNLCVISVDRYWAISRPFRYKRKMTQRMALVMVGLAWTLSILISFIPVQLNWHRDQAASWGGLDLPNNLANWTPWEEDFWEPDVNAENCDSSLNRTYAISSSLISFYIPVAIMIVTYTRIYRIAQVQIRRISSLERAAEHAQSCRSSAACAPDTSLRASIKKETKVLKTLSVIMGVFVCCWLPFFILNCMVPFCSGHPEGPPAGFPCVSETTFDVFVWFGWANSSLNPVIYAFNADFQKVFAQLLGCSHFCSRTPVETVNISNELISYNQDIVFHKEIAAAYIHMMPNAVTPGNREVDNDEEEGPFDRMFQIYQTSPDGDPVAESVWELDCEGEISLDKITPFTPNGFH
Experimental: as §1, §2

DOR = biological target: T8, DOR (Homo sapiens, UniProt P41143); assay: PDSP radioligand assay; format: binding
T8 construct: purchased NIMH Psychoactive Drug Screening Program (PDSP)
T8 sequence (P41143 whole entry): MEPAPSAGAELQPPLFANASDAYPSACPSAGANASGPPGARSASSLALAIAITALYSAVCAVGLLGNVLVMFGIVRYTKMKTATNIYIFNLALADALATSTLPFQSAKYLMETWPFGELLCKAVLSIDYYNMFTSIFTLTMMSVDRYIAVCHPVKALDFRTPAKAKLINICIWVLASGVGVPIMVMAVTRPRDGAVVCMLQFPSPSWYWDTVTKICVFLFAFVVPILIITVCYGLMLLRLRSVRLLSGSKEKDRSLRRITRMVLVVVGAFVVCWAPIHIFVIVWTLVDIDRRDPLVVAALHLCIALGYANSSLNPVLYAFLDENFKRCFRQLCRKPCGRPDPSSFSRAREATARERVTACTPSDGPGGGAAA
Experimental: as §1, §2

DAT = biological target: T9, DAT (Homo sapiens, UniProt Q01959); assay: PDSP radioligand assay; format: binding
T9 construct: purchased NIMH Psychoactive Drug Screening Program (PDSP)
Experimental: as §1, §2

M1 = biological target: T10, M1 (Homo sapiens, UniProt P11229); assay: PDSP radioligand assay; format: binding
T10 construct: purchased NIMH Psychoactive Drug Screening Program (PDSP)
Experimental: as §1, §2

5-HT1B = 5-HT1B (Homo sapiens, UniProt P28222); assay: PDSP radioligand assay; format: binding
Sequence of 5-HT1B (P28222 whole entry, species assumed): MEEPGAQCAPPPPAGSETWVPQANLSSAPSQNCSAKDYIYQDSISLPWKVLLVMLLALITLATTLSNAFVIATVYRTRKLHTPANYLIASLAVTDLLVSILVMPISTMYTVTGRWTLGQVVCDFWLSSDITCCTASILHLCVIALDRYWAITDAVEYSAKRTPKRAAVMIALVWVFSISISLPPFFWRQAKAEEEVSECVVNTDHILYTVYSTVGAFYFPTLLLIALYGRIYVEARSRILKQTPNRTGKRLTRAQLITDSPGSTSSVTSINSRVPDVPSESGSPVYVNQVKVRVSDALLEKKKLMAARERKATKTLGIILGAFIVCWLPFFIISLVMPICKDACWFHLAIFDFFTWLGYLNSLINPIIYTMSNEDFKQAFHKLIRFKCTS
Experimental: as §1, §2

M3 = M3 (Homo sapiens, UniProt P20309); assay: PDSP radioligand assay; format: binding
Sequence of M3 (P20309 whole entry): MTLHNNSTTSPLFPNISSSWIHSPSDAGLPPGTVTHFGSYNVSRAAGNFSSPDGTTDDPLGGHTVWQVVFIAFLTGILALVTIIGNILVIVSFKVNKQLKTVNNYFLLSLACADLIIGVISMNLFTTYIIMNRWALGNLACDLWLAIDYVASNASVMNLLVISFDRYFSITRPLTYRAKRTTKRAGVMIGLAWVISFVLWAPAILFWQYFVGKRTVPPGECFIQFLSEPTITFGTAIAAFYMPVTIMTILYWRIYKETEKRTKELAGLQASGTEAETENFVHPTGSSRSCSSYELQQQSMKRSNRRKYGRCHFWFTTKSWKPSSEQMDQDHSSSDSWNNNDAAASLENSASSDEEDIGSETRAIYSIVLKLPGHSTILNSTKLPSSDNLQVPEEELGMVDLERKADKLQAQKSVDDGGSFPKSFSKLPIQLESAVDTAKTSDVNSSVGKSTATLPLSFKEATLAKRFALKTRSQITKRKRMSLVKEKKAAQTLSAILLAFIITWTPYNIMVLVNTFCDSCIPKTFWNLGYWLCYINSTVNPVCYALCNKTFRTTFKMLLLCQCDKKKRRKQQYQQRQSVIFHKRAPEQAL
Experimental: as §1, §2

H1 = H1 (Homo sapiens, UniProt P35367); assay: PDSP radioligand assay; format: binding
Sequence of H1 (P35367 whole entry): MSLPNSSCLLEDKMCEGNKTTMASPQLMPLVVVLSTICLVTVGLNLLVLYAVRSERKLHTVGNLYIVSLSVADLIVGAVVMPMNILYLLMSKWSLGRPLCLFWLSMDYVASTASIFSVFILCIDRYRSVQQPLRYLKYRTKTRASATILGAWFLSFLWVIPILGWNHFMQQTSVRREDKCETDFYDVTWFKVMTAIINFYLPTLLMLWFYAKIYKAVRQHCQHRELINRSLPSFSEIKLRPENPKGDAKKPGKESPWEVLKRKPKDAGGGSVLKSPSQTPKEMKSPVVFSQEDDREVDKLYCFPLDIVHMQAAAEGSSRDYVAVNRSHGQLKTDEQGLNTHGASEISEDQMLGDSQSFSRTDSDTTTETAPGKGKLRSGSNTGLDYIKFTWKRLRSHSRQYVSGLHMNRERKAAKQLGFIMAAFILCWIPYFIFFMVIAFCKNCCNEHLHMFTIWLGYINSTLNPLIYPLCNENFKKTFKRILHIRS
Experimental: as §1, §2

D3 = D3 (Homo sapiens, UniProt P35462); assay: PDSP radioligand assay; format: binding
Sequence of D3 (P35462 whole entry): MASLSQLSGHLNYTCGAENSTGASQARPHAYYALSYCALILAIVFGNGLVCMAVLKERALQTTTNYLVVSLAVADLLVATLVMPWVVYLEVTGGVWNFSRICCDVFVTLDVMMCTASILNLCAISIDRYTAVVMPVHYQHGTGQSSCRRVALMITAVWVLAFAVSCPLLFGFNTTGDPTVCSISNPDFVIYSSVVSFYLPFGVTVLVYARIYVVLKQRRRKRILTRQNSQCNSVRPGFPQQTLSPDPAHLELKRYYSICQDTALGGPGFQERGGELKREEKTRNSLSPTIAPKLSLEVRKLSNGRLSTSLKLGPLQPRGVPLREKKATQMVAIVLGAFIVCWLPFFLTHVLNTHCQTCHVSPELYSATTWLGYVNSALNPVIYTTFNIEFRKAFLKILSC
Experimental: as §1, §2

KOR = KOR (Homo sapiens, UniProt P41145); assay: PDSP radioligand assay; format: binding
Sequence of KOR (P41145 whole entry): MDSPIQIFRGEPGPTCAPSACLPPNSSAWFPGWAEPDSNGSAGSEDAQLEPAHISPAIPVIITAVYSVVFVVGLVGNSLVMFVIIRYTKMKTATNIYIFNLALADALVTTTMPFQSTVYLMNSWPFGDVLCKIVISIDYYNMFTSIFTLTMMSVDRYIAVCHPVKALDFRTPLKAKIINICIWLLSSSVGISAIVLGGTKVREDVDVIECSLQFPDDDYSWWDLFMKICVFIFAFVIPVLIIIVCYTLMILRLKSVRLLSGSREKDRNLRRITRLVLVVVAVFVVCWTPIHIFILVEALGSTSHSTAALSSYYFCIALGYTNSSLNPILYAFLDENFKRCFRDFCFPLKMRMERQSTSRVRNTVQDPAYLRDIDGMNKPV
Experimental: as §1, §2

H4 = biological target: T11, H4 (Homo sapiens, UniProt Q9H3N8); assay: PDSP radioligand assay; format: binding
T11 construct: purchased NIMH Psychoactive Drug Screening Program (PDSP)
Experimental: as §1, §2

Alpha1B = biological target: T12, Alpha1B (Homo sapiens, UniProt P35368); assay: PDSP radioligand assay; format: binding
T12 construct: purchased NIMH Psychoactive Drug Screening Program (PDSP)
Experimental: as §1, §2

SMILES	Ki (σ1R) [nM]	inhibition at 10 µM (MOR) [%]	inhibition at 10 µM (M4) [%]	inhibition at 10 µM (SERT) [%]	Mean % (inhibition) (BZP Rat Brain Site) [%]	Ki (Alpha2C) [nM]	inhibition at 10 µM (Alpha2C) [%]	Ki (Alpha2B) [nM]	inhibition at 10 µM (Alpha2B) [%]	inhibition at 10 µM (5-HT6) [%]	inhibition at 10 µM (D5) [%]	inhibition at 10 µM (DOR) [%]	inhibition at 10 µM (DAT) [%]	inhibition at 10 µM (M1) [%]	Ki (5-HT1B) [nM]	inhibition at 10 µM (5-HT1B) [%]	inhibition at 10 µM (M3) [%]	inhibition at 10 µM (H1) [%]	Ki (D3) [nM]	inhibition at 10 µM (D3) [%]	further results
COc1ccc(-c2nc(C)c(Cl)c(OCCCN3CCCCC3)n2)cc1 [CNY-01, 5‐chloro‐2‐(4‐methoxyphenyl)‐4‐methyl‐6‐(3‐(piperidin‐1‐yl)propoxy)pyrimidine]	3.88	-16.4	20.6	21.8	10.99	430	85.1	1350	93.1	30.1	27.2	3.77	20.9	22.3	3200	79.8	16.3	93.2	521	65.8	Ki (H1): 667 nM; Ki (KOR): 1060 nM; inhibition at 10 µM (KOR): 61.1%; inhibition at 10 µM (H4): 24%; inhibition at 10 µM (Alpha1B): -11.4%
Cc1nc(-c2ccc(Cl)cc2)nc(OCCCN2CCN(C)CC2)c1Cl [CNY-02, 5‐chloro‐2‐(4‐chlorophenyl)‐4‐methyl‐6‐(3‐(4‐methylpiperazin‐1‐yl)propoxy)pyrimidine]	2.05	-14.4	31.1	43	23.26	3770	52.4	3390	68.4	28.1	58	1.3	33.8	36	3740	60.3	54	43.7	4910	66.1	Ki (D5): > 10000 nM; Ki (M3): 727 nM; inhibition at 10 µM (KOR): 20.4%; inhibition at 10 µM (H4): 23.3%; inhibition at 10 µM (Alpha1B): -26.1%
